We go through 7 molecules from publication PMC5653438 (Molecular microbiology, 2017).

The conditions of data set [1]: ref Lukesh et al., 2012; cited from earlier work.
The target of data set [2] is T1, PfLipL1 (Plasmodium falciparum, UniProt Q8IEG9). In words: biochemical. It counts as binding. The following applies: KD TSA, Kd calculated at 37 °C.
Another data set deals with malaria parasite. The following applies: treatment with lipoate analogs; ref Allary et al., 2007; Afanador et al., 2014; cited from earlier work.
The target of data set [3] is T1, PfLipL1. Description: biochemical. It counts as binding. The following applies: KD ITC.
Where [4] appears, read: reducing conditions, + TCEP (5 mM).
Setting [5] is: non-reducing conditions (no reducing agent).

Usually pKa stands for the negative logarithm of the acid dissociation constant. As usually defined, the Kd is the free concentration of one partner at which half of the binding sites on the other are occupied at equilibrium, for simple one-to-one binding.

Each structure is given as a SMILES string. Counter-ions that a name gives are not always drawn.

T1 sequence (Q8IEG9 19-408): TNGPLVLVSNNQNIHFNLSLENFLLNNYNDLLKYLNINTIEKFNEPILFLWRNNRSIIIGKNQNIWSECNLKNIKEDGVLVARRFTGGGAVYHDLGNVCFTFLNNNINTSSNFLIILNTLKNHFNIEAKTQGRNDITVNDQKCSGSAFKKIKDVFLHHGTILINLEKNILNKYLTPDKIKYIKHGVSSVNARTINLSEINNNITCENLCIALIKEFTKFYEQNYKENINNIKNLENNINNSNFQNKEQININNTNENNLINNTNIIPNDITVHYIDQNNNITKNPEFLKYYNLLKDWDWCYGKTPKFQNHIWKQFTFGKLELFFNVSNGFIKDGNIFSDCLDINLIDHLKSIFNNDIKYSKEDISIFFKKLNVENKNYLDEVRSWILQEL

In the case of `O[C@@H](CS)[C@@H](O)CS` (racemic) [DTT, dithiothreitol], the pKa in data set [1] is given as 9.3.

`O=C(O)CCCC[C@@H](S)CCS` (racemic) [Lipoate + TCEP, dihydrolipoate]: the equilibrium dissociation constant (Kd) at PfLipL1 [2] (setting [4]) was 94000 ± 30000 nM.

For the molecule `O=C(O)CCCCC(Cl)CCCl` (stereo not shown) [6,8-diClO, 6,8-dichlorooctanoate], the Kd at PfLipL1 [2] (setting [5]) was 13000 ± 4000 nM; at PfLipL1 [2] (setting [4]) it was 18000 ± 1000 nM. In the data set on malaria parasite, the “parasite cell growth inhibition” value is “causes parasite cell growth inhibition”.

Turning to `Nc1ncnc2c1ncn2[C@@H]1O[C@H](COP(=O)(O)OC(=O)CCCCC(Cl)CCCl)[C@@H](O)[C@H]1O` (stereo partly drawn) [6,8-diClO-AMP, 6,8-dichlorooctanoic (((2R,3S,4R,5R)-5-(6-amino-9H-purin-9-yl)-3,4-dihydroxytetrahydrofuran-2-yl)methylphosphoric) anhydride monosodium salt], the Kd at PfLipL1 [2] (setting [5]) was 90 ± 30 nM; at PfLipL1 [2] (setting [4]), 250 ± 20 nM; on PfLipL1 [3] (non-reducing conditions) it was 100 ± 30 nM; on PfLipL1 [3] (reducing conditions, + TCEP), 500 ± 200 nM.

As to `O=C(O)CCCCCCCBr` [8-BrO, 8-bromooctanoate], the “parasite cell growth inhibition” value in the data set on malaria parasite is reported as “causes parasite cell growth inhibition”.

`Nc1ncnc2c1ncn2[C@@H]1O[C@H](COP(=O)(O)OC(=O)CCCC[C@@H](S)CCS)[C@@H](O)[C@H]1O` [Lipoyl-AMP + TCEP, dihydrolipoyl-AMP]: at PfLipL1 [2] (setting [4]), the Kd is 5800 ± 400 nM.

As to `Nc1ncnc2c1ncn2[C@@H]1O[C@H](COP(=O)(O)OC(=O)CCCC[C@@H]2CCSS2)[C@@H](O)[C@H]1O` [Lipoyl-AMP, (R)-5-(1,2-dithiolan-3-yl)pentanoic (((2R,3S,4R,5R)-5-(6-amino-9H-purin-9-yl)-3,4-dihydroxytetrahydrofuran-2-yl)methylphosphoric) anhydride monosodium salt], the results for the dissociation constant (Kd) at PfLipL1 [2] (setting [5]) and on PfLipL1 [3] (non-reducing conditions) were 20 ± 5 nM and 65 ± 5 nM, respectively.
